Literature values as cited in patent US20230079480A1, “STABLE NON-AQUEOUS COMPOSITIONS OF FUNCTIONAL INGREDIENTS AND METHODS OF MAKING THE SAME” (Nulixir Inc., priority 2021, published 2023).

Tested on: not given
Conditions: in vivo
In the case of `COc1ccc2cc3[n+](cc2c1OC)CCc1cc2c(cc1-3)OCO2` [berberine], the bioavailability is listed as “below 1%”.

Tested on: many strains of fungi
Conditions: not given
In the case of `O=CC=Cc1ccccc1` [Cinnamaldehyde], the “inhibitory activity against fungi” value is given as “strong inhibitory activity against many strains of fungi”.

Tested on: not given
Conditions: not given
For `COc1ccc2cc3[n+](cc2c1OC)CCc1cc2c(cc1-3)OCO2` [berberine], the “solubility in ethanol as a function of water content” value is given as “decreases rapidly with water content”.

Tested on: not given
Conditions: pH 7
For `CC(C)=C[C@H]1C[C@](C)(O)[C@@H]2[C@H]3CC[C@@H]4[C@@]5(C)CC[C@H](O[C@@H]6OC[C@H](O)[C@H](O[C@@H]7O[C@H](CO)[C@@H](O)[C@H](O)[C@H]7O)[C@H]6O[C@@H]6O[C@@H](CO)[C@H](O)[C@H]6O)C(C)(C)[C@@H]5CC[C@@]4(C)[C@@]34CO[C@@]2(C4)O1` [bacopaside X], the “log P” value is listed as roughly 2.2.
For `CC(C)=C[C@@H]1CO[C@]23C[C@]4(CO2)[C@H](CC[C@@H]2[C@@]5(C)CC[C@H](O[C@@H]6OC[C@H](O)[C@H](O[C@@H]7O[C@H](CO)[C@@H](O)[C@H](O)[C@H]7O)[C@H]6O[C@@H]6O[C@@H](CO)[C@H](O)[C@H]6O)C(C)(C)[C@@H]5CC[C@]24C)[C@H]3[C@@]1(C)O` [bacopasaponin C], the “log P” value is listed as roughly 2.
For `CC(C)=C[C@H]1C[C@](C)(O)[C@H]2[C@H]3CC[C@@H]4[C@@]5(C)CC[C@H](O[C@@H]6O[C@H](CO)[C@@H](O)[C@H](O[C@@H]7O[C@H](CO)[C@@H](O)[C@H](O)[C@H]7O)[C@H]6O[C@@H]6O[C@@H](CO)[C@H](O)[C@H]6O)C(C)(C)[C@@H]5CC[C@@]4(C)[C@@]34CO[C@@]2(C4)O1` [bacoside A3], the “log P” value is listed as roughly 2.1.
In the case of `COc1ccc([C@@]23C=CC(=O)C[C@@H]2N(C)CC3)cc1OC` [mesembrenone], the “log P” value is given as roughly 1.3.
For `COc1ccc(C23C=CC(O)CC2N(C)CC3)cc1OC` (stereo not drawn) [mesembrenol], the “log P” value is listed as roughly 2.4.
For `CC(C)=CCC[C@](C)(O[C@@H]1O[C@H](CO)[C@@H](O)[C@H](O)[C@H]1O)[C@H]1CC[C@]2(C)[C@@H]1[C@H](O)C[C@@H]1[C@@]3(C)CC[C@H](O)C(C)(C)[C@@H]3[C@@H](O[C@@H]3O[C@H](CO)[C@@H](O)[C@H](O)[C@H]3O)C[C@]12C` [ginsenoside rg1], the “log P” value is listed as roughly 0.8.
For `CC(C)=CCC[C@](C)(O[C@@H]1O[C@H](CO[C@@H]2O[C@H](CO)[C@@H](O)[C@H](O)[C@H]2O)[C@@H](O)[C@H](O)[C@H]1O)[C@H]1CC[C@]2(C)[C@@H]1[C@H](O)C[C@@H]1[C@@]3(C)CC[C@H](O[C@@H]4O[C@H](CO)[C@@H](O)[C@H](O)[C@H]4O[C@@H]4O[C@H](CO)[C@@H](O)[C@H](O)[C@H]4O)C(C)(C)[C@@H]3CC[C@]12C` [ginsenoside rb1], the “log P” value is listed as roughly −1.

Same assay, conditions: water and n-octanol reference phases; pH=7 unless stated otherwise
In the case of (R)-kawain, the “log P” value is listed as roughly 2.7.
For `COc1cc(/C=C/c2ccccc2)oc(=O)c1` [5,6-dehydrokawain], the “log P” value is given as roughly 2.9.
For `COc1cc2c(c(OC)c1OC)-c1c(cc(OC)c(OC)c1OC)C[C@](C)(O)[C@@H](C)C2` [schisandrol A], the “log P” value is listed as roughly 3.4.
For herinacine A, the “log P” value is given as roughly 2.5.
For `COc1cc2c(c(OC)c1OC)-c1c(cc(OC)c(OC)c1OC)C[C@H](C)[C@H](C)C2` [(−)-schisandrin A], the “log P” value is given as roughly 3.6.
In the case of `Cn1c(=O)c2c(n(C)c1=O)n(C)c(=O)n2C` [theacrine], the “log P” value is listed as roughly −1.06.
In the case of `COc1c2c(cc3c1-c1c(cc4c(c1OC)OCO4)C[C@H](C)[C@H](C)C3)OCO2` [(−)-schisandrin C], the “log P” value is listed as roughly 3.5.
For `COc1ccc(CCc2cc(OC)cc(=O)o2)cc1` [7,8-dihydroyangonin], the “log P” value is given as roughly 2.9.
In the case of `COc1cc2c(c(OC)c1OC)-c1c(cc3c(c1OC)OCO3)CC(C)C(C)C2` (single isomer, unassigned; (-)) [(−)-schisandrin B], the “log P” value is listed as roughly 4.
For `COC1=CC(=O)O[C@@H](CCc2ccc3c(c2)OCO3)C1` [7,8-dihydromethysticin], the “log P” value is given as roughly 2.2.
In the case of `N#C[C@@]1(O[C@@H]2O[C@H](CO)[C@@H](O)[C@H](O)[C@H]2O)C=C[C@@H](O)C1` [tetraphyllin B], the “log P” value is listed as roughly −2.5.
In the case of `CC1=C(CO)C(=O)O[C@@H]([C@@H](C)[C@H]2CC[C@H]3[C@@H]4C[C@H](Cl)[C@]5(O)[C@@H](O)C=CC(=O)[C@]5(C)[C@H]4CC[C@]23C)C1` [6a-chloro-5b-hydroxywithaferin A], the “log P” value is given as roughly 3.2.
For `COC1=CC(=O)OC(/C=C/c2ccc(OC)cc2)C1` (stereo not drawn) [5,6-dihydroyangonin], the “log P” value is listed as roughly 2.5.
In the case of `COc1cc([C@H]2Oc3cc(O)c4c(=O)c(O)c(-c5ccc(O)cc5)oc4c3O[C@@H]2CO)ccc1O` [rhodiolin], the “log P” value is given as roughly 2.
In the case of `CC(=O)OC1C=CC(=O)N(C(=O)CCc2ccccc2)C1` (stereo not drawn) [pipermethystine], the “log P” value is listed as roughly 1.8.
For hericerin, the “log P” value is given as roughly 6.4.
For `COc1ccc([C@@]23CCC(=O)C[C@@H]2N(C)CC3)cc1OC` [mesembrine], the “log P” value is given as roughly 1.5.
For `COc1cc(/C=C\c2ccc(OC)c(O)c2)oc(=O)c1` [11-hydroxyyangonin], the “log P” value is given as roughly 2.2.
For schisandroside C, the “log P” value is given as roughly 1.6.
For `COc1nc2c(c(=O)n1C)n(C)c(=O)n2C` [methylliberine], the “log P” value is listed as roughly −0.083.
For bacopaside B, the “log P” value is listed as roughly 2.8.
For `COc1cc2c(c(OC)c1OC)-c1c(cc(OC)c(OC)c1OC)C[C@](C)(O)[C@@H](C)C2` [(+)-schisandrin], the “log P” value is given as roughly 5.
For tortuosomine, the “log P” value is listed as roughly 3.
